What was measured:
Escherichia coli 0-111 = experiment: Test for antimicrobial activity (turbidity): growth inhibiting concentration of antibiotics; type: cell-based
Protocol: (§1) Precultures of test microorganisms to be used in the tests described hereunder were prepared in such a manner that: from the frozen preservation of dispersions of test microorganisms, a loop of the respective strains of the microorganisms were taken out and spread onto TRI PETIT CASE SOYA AGAR MEDIA (by BBL Company), and incubated at 37° C. for 16 hours; the colonies grown on the culture media were scraped by a platinum loop and cultivated in 2.1% Mueller-Hington Broth (by Difco Company) respectively for several hours at 37° C. The resultant microbial cultures at logarithmic phase in 3×10^8 /ml of microbial concentration were used as the precultures.
(§2) The test media to be used in the respective tests were prepared in such a manner that: aqueous solutions in a predetermined concentration of the lactoferrin hydrolysates or the lactoferrin-derived antimicrobial peptides of (1) and (2) in Preparation of Samples (supra), as well as the samples of antibiotics of (3) (supra) were respectively sterilized with filters (by Advantec Company); then a quantity of the resultant solutions of respective samples were selectively added to a quantity of basal medium (Mueller-Hington Broth) prepared in the eventual concentration of 2.1%, thereby combinations of the samples and their concentrations in the respective test media were adjusted as specified in the respective tests.
(§3) Antimicrobial activity was examined as follows: A quantity of the respective precultures prepared in (1) immediately above was diluted with 2.1% Mueller-Hington Broth to result in 2×10^6 /ml of microbial concentration; 100 μl aliquots of the resultant liquid were added to 100 μl aliquots of one of the test media as specified in the respective test; the resultant media were incubated at 37° C. for 16 hours; then the turbidity of the resultant culture broths were measured thereby antimicrobial activity was examined.
(§4) Components in the test and control media and eventual concentrations thereof were adjusted by properly combining 0 mg, 0.4 mg, 1.6 mg and 6.4 mg/ml of lactoferrin hydrolysate of (1) (in Preparation of Samples, supra). or 0 μg, 16 μg, 64 μg, and 256 μg/ml of lactoferrin-derived antimicrobial peptides of (2) (in Preparation of Samples, supra), and 0 μg, 0.01 μg, 0.1 μg, 1 μg, and 10 μg/ml of antibiotics of (3) (supra), then antimicrobial activity of the combined use of the components against Escherichia coli 0-111 and Staphylococcus aureus (JCM2151) as well as growth inhibiting concentrations of the antibiotics were investigated.

[1] = system: Staphylococcus aureus JCM2151; experiment: as above; type: cell-based; conditions: for MIC: Staphylococcus aureus
Protocol: as §1, §2, §3, §4

[2] = Escherichia coli, 0111, antimicrobial peptide (Seq. ID No. 27) 0 μg/ml
[3] = Escherichia coli, 0111, antimicrobial peptide (Seq. ID No. 27) 16 μg/ml
[4] = Escherichia coli, 0111, antimicrobial peptide (Seq. ID No. 27) 64 μg/ml
[5] = Escherichia coli, 0111, antimicrobial peptide (Seq. ID No. 27) 256 μg/ml
[6] = lactoferrin hydrolysate 0 mg/ml
[7] = lactoferrin hydrolysate 0.4 mg/ml
[8] = lactoferrin hydrolysate 1.6 mg/ml
[9] = lactoferrin hydrolysate 6.4 mg/ml
[10] = JCM2151, antimicrobial peptide (Seq. ID No. 27) 0 μg/ml
[11] = JCM2151, antimicrobial peptide (Seq. ID No. 27) 16 μg/ml
[12] = JCM2151, antimicrobial peptide (Seq. ID No. 27) 64 μg/ml
[13] = JCM2151, antimicrobial peptide (Seq. ID No. 27) 256 μg/ml
[14] = antimicrobial peptide (Seq. ID No. 27) 0 μg/ml
[15] = antimicrobial peptide (Seq. ID No. 27) 16 μg/ml
[16] = antimicrobial peptide (Seq. ID No. 27) 64 μg/ml
[17] = antimicrobial peptide (Seq. ID No. 27) 256 μg/ml

Row | Compound | MIC (Escherichia coli 0-111; [2]) | MIC (Escherichia coli 0-111; [3]) | MIC (Escherichia coli 0-111; [4]) | MIC (Escherichia coli 0-111; [5]) | Growth inhibiting Concentration of antibiotics (Escherichia coli 0-111; [6]) | Growth inhibiting Concentration of antibiotics (Escherichia coli 0-111; [7]) | Growth inhibiting Concentration of antibiotics (Escherichia coli 0-111; [8]) | Growth inhibiting Concentration of antibiotics (Escherichia coli 0-111; [9]) | MIC [1, 10] | MIC [1, 11] | MIC [1, 12] | MIC [1, 13] | Growth inhibiting Concentration of antibiotics [1, 6] | Growth inhibiting Concentration of antibiotics [1, 7] | Growth inhibiting Concentration of antibiotics [1, 8] | Growth inhibiting Concentration of antibiotics [1, 9] | further results
1 | COc1cccc(OC)c1C(=O)N[C@@H]1C(=O)N2[C@@H]1SC(C)(C)[C@@H]2C(=O)O [staphcillin] | > 1 µg/mL | > 1 µg/mL | 1 µg/mL | 0.01 µg/mL | > 1 µg/mL | > 1 µg/mL | > 1 µg/mL | 0.1 µg/mL | > 1 µg/mL | > 1 µg/mL | 1 µg/mL | 0.01 µg/mL | > 1 µg/mL | > 1 µg/mL | > 1 µg/mL | 0.1 µg/mL | 
2 | polymyxin B |  |  |  |  | > 1 µg/mL | > 1 µg/mL | 0.1 µg/mL | 0.01 µg/mL |  |  |  |  | > 1 µg/mL | 0.1 µg/mL | 0.1 µg/mL | 0.1 µg/mL | Growth inhibiting Concentration of antibiotics (Escherichia coli 0-111; [14]): > 1 µg/mL; Growth inhibiting Concentration of antibiotics (Escherichia coli 0-111; [15]): > 1 µg/mL; Growth inhibiting Concentration of antibiotics (Escherichia coli 0-111; [16]): 0.1 µg/mL; Growth inhibiting Concentration of antibiotics (Escherichia coli 0-111; [17]): 0.1 µg/mL; Growth inhibiting Concentration of antibiotics [1, 14]: > 1 µg/mL; Growth inhibiting Concentration of antibiotics [1, 15]: 0.1 µg/mL; Growth inhibiting Concentration of antibiotics [1, 16]: 0.1 µg/mL; Growth inhibiting Concentration of antibiotics [1, 17]: 0.1 µg/mL
3 | CC(=O)OCC1=C(C(=O)O)N2C(=O)[C@@H](NC(=O)Cc3cccs3)[C@H]2SC1 [cephalothin] | > 1 µg/mL | > 1 µg/mL | 1 µg/mL | 0.01 µg/mL | > 1 µg/mL | > 1 µg/mL | 1 µg/mL | 0.01 µg/mL | > 1 µg/mL | 1 µg/mL | 1 µg/mL | 0.01 µg/mL | > 1 µg/mL | 1 µg/mL | 1 µg/mL | 0.01 µg/mL | 
4 | NC[C@H]1O[C@H](O[C@H]2[C@H](O)[C@@H](O[C@H]3O[C@H](CO)[C@@H](O)[C@H](N)[C@H]3O)[C@H](N)C[C@@H]2N)[C@H](O)[C@@H](O)[C@@H]1O [kanamycin] | > 1 µg/mL | > 1 µg/mL | 1 µg/mL | 0.01 µg/mL | > 1 µg/mL | > 1 µg/mL | 1 µg/mL | 0.1 µg/mL | > 1 µg/mL | > 1 µg/mL | 1 µg/mL | 0.01 µg/mL | > 1 µg/mL | > 1 µg/mL | > 1 µg/mL | 0.1 µg/mL | 
5 | CC1(C)S[C@@H]2[C@H](NC(=O)[C@H](N)c3ccccc3)C(=O)N2[C@H]1C(=O)O [ampicillin] | > 1 µg/mL | 1 µg/mL | 1 µg/mL | 0.1 µg/mL | > 1 µg/mL | 1 µg/mL | 1 µg/mL | 0.01 µg/mL | > 1 µg/mL | 1 µg/mL | 1 µg/mL | 0.1 µg/mL | > 1 µg/mL | 1 µg/mL | 1 µg/mL | 0.1 µg/mL | 

— patent publication US5656591A, “Antimicrobial agents and method for treating products therewith” (Morinaga Milk Industry Co., Ltd., priority 1992, dated 1997)
